# Measurements taken from patent US4914086A, “Method for treating African human and veterinary trypanosomiases” (priority 1987, dated 1990).
# Entries after “also recorded” stand apart in the source; their conditions may differ.
# Experiments:
# T. b. brucei LUMP 1001 [1] = details: infection developed within 21 days; cited from earlier work
# T. b. brucei TREU 667 [2] = assay: CNS model, T. b. brucei TREU 667 infection in mice (Table 4); type: in vivo, Trypanosoma brucei brucei (in Swiss-Webster mice); details: for efficacy in CNS model in words: 100 mg/kg × 6 doses/days
# Text: (§1) T. b. brucei EATRO 110 isolate was maintained as described (Bacchi, C. J., H. C. Nathan, S. H. Hutner, P. P. McCann and A. Sjoerdsma; Polyamine metabolism: a potential chemotherapeutic target in trypanosomes. Science 210: 332-334, 1980). It produces an acute, rapidly fatal parasitemia which is lethal to mice 3-5 days after inoculation. Two T. B. brucei strains, TREU 667 and LUMP 1001 developed by Jennings and coworkers (Jennings, F. W., D. D. Whitelaw and G. M. Urquhart; The relationship between duration of infection with Trypanosoma brucei in mice and the efficacy of chemotherapy. Parasitology 75: 143-153, 1977/Jennings, F. W. and G. D. Gray; Relapsed parasitemia following chemotherapy of chronic T. brucei infections in mice and its relation to cerebral trypanosomes; Contr. Microbiol. Immunol. 7 147-154, 1983) were used as CNS models. Both produce infections which are refractory to Berenil® (diminazene aceturate) and develop within 21 days after inoculation. They are not usually fatal until >40 days after inoculation. LUMP 1001 causes a more virulent CNS infection than TREU 667, and is regarded as more difficult to cure (Jennings, F. W. and G. D. Gray. Relapsed parasitemia following chemotherapy of chronic T. brucei infections in mice and its relation to cerebral trypanosomes. Contr. Microbiol. Immunol. 7 147-154, 1983).
# The models for […] nervous system infections used TREU 667 and LUMP 1001 strains which were stored frozen and passaged once in rats before infection of mice. Maintenance and use of these screens were as described (Clarkson, A. B. Jr., C. J. Bacchi, G. H. Mellon, H. C. Nathan, P. P. McCann and A. Sjoerdsma. Efficacy of DFMO+blemoycin in a mouse model of central nervous system African trypanosomiasis. Proc. Natl. Acad. Sci. USA. 80: 5729-5733, 1983/Clarkson, A. B. Jr., E. J. Biene, C. J. Bacchi, P. P. McCann, S. H. Hutner and A. Sjoerdsma. New drug combination for experimental late stage African trypanosomiasis: DFMO with suramin. Am. J. Trop. Med. Hyg. 33: 1073-1077, 1984/Dube, D. K., G. Mpimbaza, A. C. Allison, E. Lederer and L. Rovis. Antitrypanosomal activity of sinefungin, Am. J. Trop. Med. Hyg. 32: 31-33, 1983/Fish, W. R., J. J. Marr, R. L. Berens, D. L. Looker, D. J. Nelson, S. LaFon and A. E. Balber. Inosine analogs as chemotherapeutic agents for African trypanosomes: metabolism in trypanosomes and efficacy in tissue culture. Anti-microb. Ag. Chemother. 27: 33-36, 1985/Clazer, R. I., and L. S. Lloyd. Effects of 8-azaadenosine and formycin on cell lethality and the synthesis and methylation of nucleic acids in human colon carcinoma cells in culture. Biochem. Pharmacol. 31: 3207-3214, 1982/Bacchi, C. J., H. C. Nathan, A. B. Clarkson, Jr., E. J. Bienen, A. J. Bitonti, P. P. McCann and A. Sjoerdsma. Activity of the ornithine decarboxylase inhibitors DL-α-difluoromethylornithine and monofluormethyldehydroornithine methylester alone and in combination with suramin against Trypanosoma brucei brucei central nervous system models, Am. J. Trop. Med. Hyg. (in press)). Briefly, groups of 100-120 mice were infected and the infections allowed to develop until day 21, when the animals were separated into groups of 10 and therapy commenced. Controls were treated with Berenil (40 mg/kg) on day 21. These always relapsed 40-70 days after treatment. Parasitemia was followed by examining tail vein blood smears once weekly. Animals which had relapsed were removed from cages. TREU 667 infections were followed >225 days after inoculation and LUMP 1001 were followed >280 days, as determined by the relapse pattern in previous work (Bacchi, C. J., H. C. Nathan, A. B. Clarkson, Jr., E. J. Bienen, A. J. Bitonti, P. P. McCann and A. Sjoerdsma. Activity of the ornithine decarboxylase inhibitors DL-α-difluoromethylornithine and monofluormethyldehydroornithine methylester alone and in combination with suramin against Trypanosoma brucei brucei central nervous system models. Am. J. Trop. Med. Hyg. (in press)). […]
# T. b. brucei LUMP 1001 [3] = assay: CNS model, T. b. brucei LUMP 1001 infection in mice (Table 5); type: in vivo, Trypanosoma brucei brucei (in Swiss-Webster mice); details: control: Berenil 40 mg/kg on day 21
# Text: as §1
# The models for […] nervous system infections used TREU 667 and LUMP 1001 strains which were stored frozen and passaged once in rats before infection of mice. Maintenance and use of these screens were as described (Clarkson, A. B. Jr., C. J. Bacchi, G. H. Mellon, H. C. Nathan, P. P. McCann and A. Sjoerdsma. Efficacy of DFMO+blemoycin in a mouse model of central nervous system African trypanosomiasis. Proc. Natl. Acad. Sci. USA. 80: 5729-5733, 1983/Clarkson, A. B. Jr., E. J. Biene, C. J. Bacchi, P. P. McCann, S. H. Hutner and A. Sjoerdsma. New drug combination for experimental late stage African trypanosomiasis: DFMO with suramin. Am. J. Trop. Med. Hyg. 33: 1073-1077, 1984/Dube, D. K., G. Mpimbaza, A. C. Allison, E. Lederer and L. Rovis. Antitrypanosomal activity of sinefungin, Am. J. Trop. Med. Hyg. 32: 31-33, 1983/Fish, W. R., J. J. Marr, R. L. Berens, D. L. Looker, D. J. Nelson, S. LaFon and A. E. Balber. Inosine analogs as chemotherapeutic agents for African trypanosomes: metabolism in trypanosomes and efficacy in tissue culture. Anti-microb. Ag. Chemother. 27: 33-36, 1985/Clazer, R. I., and L. S. Lloyd. Effects of 8-azaadenosine and formycin on cell lethality and the synthesis and methylation of nucleic acids in human colon carcinoma cells in culture. Biochem. Pharmacol. 31: 3207-3214, 1982/Bacchi, C. J., H. C. Nathan, A. B. Clarkson, Jr., E. J. Bienen, A. J. Bitonti, P. P. McCann and A. Sjoerdsma. Activity of the ornithine decarboxylase inhibitors DL-α-difluoromethylornithine and monofluormethyldehydroornithine methylester alone and in combination with suramin against Trypanosoma brucei brucei central nervous system models, Am. J. Trop. Med. Hyg. (in press)). Briefly, groups of 100-120 mice were infected and the infections allowed to develop until day 21, when the animals were separated into groups of 10 and therapy commenced. Controls were treated with Berenil (40 mg/kg) on day 21. […] Parasitemia was followed by examining tail vein blood smears once weekly. Animals which had relapsed were removed from cages.
# T. b. brucei TREU 667 [4] = details: infection developed within 21 days; cited from earlier work
# African trypanosomes = details: previous studies; cited from earlier work
# T. b. brucei EATRO 110 = assay: Drug screen, acute EATRO 110 mouse infection (Tables 1, 3); type: in vivo, Trypanosoma brucei brucei (in Swiss-Webster mice); details: for activity in the acute (short term) EATRO 110 model, in words: text summary
# Text: as §1
# (§2) Swiss-Webster (25-30 g) mice were used throughout. In the EATRO 110 model, groups of 100 mice were infected (10^5 trypanosomes/mouse) and the infection was allowed to develop 24 hours before commencing therapy. Animals were divided into groups of 5 before treatment. Cured animals survived >30 days beyond deaths of controls. All compounds were administered by i.p. injection.
# Other methods as in Table 1.
# Leishmania spp = details: previous studies; cited from earlier work
# T. brucei subsp. = details: cited from earlier work
# [5] = system: Trypanosoma brucei rhodesiense; details: bone marrow tissue culture system; cited from earlier work
# mouse L cells = details: cited from earlier work
# T. cruzi = details: previous studies; cited from earlier work
# [6] = system: Trypanosoma brucei gambiense; details: bone marrow tissue culture system; cited from earlier work
# in vivo = assay: in vivo
# Experimental: as §2
# mammalian cells = details: cited from earlier work
# Pneumocystis Carinii = details: tissue culture; cited from earlier work
# human macrophages = details: cited from earlier work
# [7] = system: human colon carcinoma cells; details: cited from earlier work
# [8] = Table 1, 2.5 mg/kg i.p. (9-DINO, sinefungin once daily for 3 days)
# [9] = Table 1, 5 mg/kg i.p. (9-DINO, sinefungin once daily for 3 days)
# [10] = Table 1, 10 mg/kg i.p. (9-DINO, sinefungin once daily for 3 days)
# [11] = Table 1, 25 mg/kg i.p. (9-DINO, sinefungin once daily for 3 days)
# [12] = Table 1, 50 mg/kg i.p. (9-DINO, sinefungin once daily for 3 days)
# [13] = Table 1, 100 mg/kg i.p. (9-DINO, sinefungin once daily for 3 days)
# [14] = Table 3, 0.05 mg/kg i.p. once daily for 3 days
# [15] = Table 3, 0.1 mg/kg i.p. once daily for 3 days
# [16] = Table 3, 0.25 mg/kg i.p. once daily for 3 days
# [17] = Table 3, 0.5 mg/kg i.p. once daily for 3 days
smiles,measurement,setting,value
"N=C(N)c1ccc(N=NNc2ccc(C(=N)N)cc2)cc1 [Berenil, diminazene aceturate, reference compound]",response of infection in words,T. b. brucei LUMP 1001 [1],refractory
same,relapse after treatment,T. b. brucei TREU 667 [2]; control: Berenil 40 mg/kg on day 21,40 to 70 days
same,relapse after treatment,T. b. brucei LUMP 1001 [3],40 to 70 days
same,response of infection in words,T. b. brucei TREU 667 [4],refractory
"O=c1[nH]cnc2c([C@@H]3O[C@H](CO)[C@@H](O)[C@H]3O)n[nH]c12 [Formycin B, 7-hydroxypyrazolo (4,3-d) pyrimidine ribonucleoside]",activity in words,African trypanosomes,active
same,curative / active dose range,"T. b. brucei EATRO 110; EATRO 110, text",5 to 100 mg/kg
same,# Cured/Total,T. b. brucei EATRO 110; [8],5/5
same,% Cured,T. b. brucei EATRO 110; [8],100%
same,# Cured/Total,T. b. brucei EATRO 110; [9],4/5
same,% Cured,T. b. brucei EATRO 110; [9],80%
same,# Cured/Total,T. b. brucei EATRO 110; [10],5/5
same,% Cured,T. b. brucei EATRO 110; [10],100%
same,# Cured/Total,T. b. brucei EATRO 110; [11],9/10
same,% Cured,T. b. brucei EATRO 110; [11],90%
same,# Cured/Total,T. b. brucei EATRO 110; [12],5/5
same,% Cured,T. b. brucei EATRO 110; [12],100%
same,# Cured/Total,T. b. brucei EATRO 110; [13],4/5
same,% Cured,T. b. brucei EATRO 110; [13],80%
same,# Cured/Total,T. b. brucei EATRO 110; [14],0/5
same,% Cured,T. b. brucei EATRO 110; [14],0%
same,# Cured/Total,T. b. brucei EATRO 110; [15],0/5
same,% Cured,T. b. brucei EATRO 110; [15],0%
same,# Cured/Total,T. b. brucei EATRO 110; [16],1/10
same,% Cured,T. b. brucei EATRO 110; [16],10%
same,# Cured/Total,T. b. brucei EATRO 110; [17],3/5
same,% Cured,T. b. brucei EATRO 110; [17],60%
same,relative activity of formycin B versus 9-DINO,T. b. brucei EATRO 110; comparison of activity ranges,> 10 X
same,"activity in the acute (short term) EATRO 110 model, in words",T. b. brucei EATRO 110,most active; also recorded: extremely active
same,"activity in the acute (short term) EATRO 110 model, in words",T. b. brucei EATRO 110; listed as formycin B,greatest activity; also recorded: more active than 9-DINO
same,activity in words,Leishmania spp,active
same,metabolism in words,T. brucei subsp.,can be aminated by T. brucei subsp. and converted to analogs of ATP
same,activity in words,[5],active at very low concentrations; also recorded: somewhat more efficacious than 9-deazainosine
same,metabolism in words,mouse L cells,Mouse L cells can convert formycin B to the analogs of adenine nucleotides and incorporate the ATP analog into RNA
same,activity in words,T. cruzi,active
same,activity in words,[6],active at very low concentrations; also recorded: somewhat more efficacious than 9-deazainosine
same,toxicity in words,in vivo; 100 mg/kg,toxicity was observed; also recorded: loss of hair
same,mortality,"in vivo; mouse, in vivo, ip, 100 mg/kg",20%
same,dose at which toxicity appeared,"in vivo; short term model, Table 1",100 mg/kg
same,cleavage into ribose and purine analog moieties,mammalian cells,cannot be cleaved into ribose and purine analog moieties
same,metabolism in words,mammalian cells,metabolized by mammalian cells to its aminated analog formycin A
same,# Cured/Total,"T. b. brucei TREU 667 [2]; 5 mg/kg i.p., 7 days",0/8
same,% Cured,"T. b. brucei TREU 667 [2]; 5 mg/kg i.p., 7 days",0%
same,Avg. Day of Relapse (Range),"T. b. brucei TREU 667 [2]; 5 mg/kg i.p., 7 days",42 (37-49) Day
same,# Cured/Total,"T. b. brucei TREU 667 [2]; 10 mg/kg i.p., 7 days",0/9
same,% Cured,"T. b. brucei TREU 667 [2]; 10 mg/kg i.p., 7 days",0%
same,Avg. Day of Relapse (Range),"T. b. brucei TREU 667 [2]; 10 mg/kg i.p., 7 days",40 (37-41) Day
same,# Cured/Total,"T. b. brucei TREU 667 [2]; 25 mg/kg i.p., 7 days",0/10
same,% Cured,"T. b. brucei TREU 667 [2]; 25 mg/kg i.p., 7 days",0%
same,Avg. Day of Relapse (Range),"T. b. brucei TREU 667 [2]; 25 mg/kg i.p., 7 days",40 (37-68) Day
same,# Cured/Total,"T. b. brucei TREU 667 [2]; 50 mg/kg i.p., 6 days",0/10
same,% Cured,"T. b. brucei TREU 667 [2]; 50 mg/kg i.p., 6 days",0%
same,Avg. Day of Relapse (Range),"T. b. brucei TREU 667 [2]; 50 mg/kg i.p., 6 days",34 (23-35) Day
same,# Cured/Total,"T. b. brucei TREU 667 [2]; 100 mg/kg i.p., 6 days",0/9
same,% Cured,"T. b. brucei TREU 667 [2]; 100 mg/kg i.p., 6 days",0%
same,Avg. Day of Relapse (Range),"T. b. brucei TREU 667 [2]; 100 mg/kg i.p., 6 days",35 days
same,efficacy in CNS model in words,T. b. brucei TREU 667 [2],not curative
same,efficacy in CNS model in words,T. b. brucei TREU 667 [2]; listed as formycin B,failed to protect
same,activity in words,Pneumocystis Carinii,active
same,conversion to adenine nucleotide analogs / incorporation in words,human macrophages,this occurred in human macrophages
Nc1ncnc2c([C@@H]3O[C@H](CO)[C@@H](O)[C@H]3O)n[nH]c12 [formycin A],incorporation into DNA in words,[7],can be incorporated into DNA
